From patent US11707472B2, “Compositions for the treatment of fibrosis” (Viking Therapeutics, Inc., priority 2017, dated 2023)

Tests used:
Format in all cases: in vivo
DIO-NASH mice = assay: DIO-NASH mice, 8 weeks oral treatment, liver fibrosis readouts (Example 1); settings: oral once per day; for liver Picro-Sirius Red (PSR) staining (total liver collagen 1 and 3 by morphometry): Compound 1 10 mg/kg; for proportion of animals with a reduction in fibrosis score post-treatment: vs mock treated animals
Experimental: DIO-NASH mice were acclimatized for 3 weeks, with pre-treatment liver biopsy samples collected prior to acclimatization. Mice were randomly assigned to one of five dosing groups, with 12 mice per group. Assigned dosages were: Compound 2 (low): 3 mg/kg; Compound 2 (high): 10 mg/kg; Compound 1: 10 mg/kg; and Elafibranor (30 mg·kg). One group was mock treated with vehicle only as a control. Dosage forms were administered orally once per day. After 8 weeks, animals were sacrificed and liver samples were taken. Liver samples were assayed for total liver hydroxyproline, and subjected to immunohistochemical observation for fibrosis stage as well as the extent of Cola1 (Collagen Type Ia) staining. […] Since hydroxyproline is a significant component of collagen, and collagen is the most significant source of hydroxyproline in animal tissues, levels of hydroxyproline provide a reliable proxy for the presence of collagen in a sample.
Terminal liver biopsy samples were also subjected to histochemical staining and immunohistochemical staining. Representative images of liver stained with Picro-Sirius Red (to visualize collagen I and III deposition, red stain) at the end of the treatment period following 8 weeks of treatment with vehicle, low dose Compound 2, high dose Compound 2, Compound 1, or elafibranor are shown in FIG. 2. […] Representative images of liver stained with anti-type I collagen (col1a1) (Southern Biotech, Cat. 131001) at the end of the treatment period following 8 weeks of treatment with vehicle, low dose Compound 2, high dose Compound 2, Compound 1, or elafibranor are shown in FIG. 3. The extent of ColA1 content was calculated as the total liver ColA1 staining in terminal liver biopsy samples.
Fibrosis scores were also calculated based on observation of terminal liver biopsy samples.

[1] = system: diet-induced NASH mouse model; assay: diet-induced NASH mouse model, 8-week dosing (Example 6); set-up: reduction in fibrosis (fibrosis score) / reduction in type 1 collagen deposition / reduction in hydroxyproline / reduction of expression of pro-fibrotic gene Colla1 / reduction of expression of pro-fibrotic gene Col3a1 / reduction of expression of pro-fibrotic gene αSMA / reduction of expression of pro-fibrotic gene Galectin 1: concentration or dose not given beside the values; settings: diet-induced NASH mice, oral dosing 8 weeks
Experimental: Compound 2 was evaluated in a diet-induced NASH mouse model (See, e.g., Hansen, H. et al., Drug Discovery Today 22(17):1701-1718 (2017) which is hereby incorporated by reference with respect to its disclosure of diet-induced, genetic, chemical, and other NASH mouse models). […] Animals were biopsied pre-study, and only animals with NASH and fibrosis were selected for study. Selected animals were acclimatized and randomized, with experimental groups of 11-12 animals per cohort receiving oral dosing of compound 2 according to the following schedules: Daily dosing for 8 weeks; or daily dosing for week 0-1 followed by weekly dosing for weeks 2-8. At week 8, animals were sacrificed and tissues analyzed. Plasma enzymes (P-ALT (alanine aminotransferase) and P-AST (aspartate aminotransferase)), total plasma triglycerides, and total plasma cholesterol were measured, and terminal necropsy of each liver was carried out, assaying total liver biochemistry including total liver triglycerides, and total liver cholesterol, as well as histological evaluation of NAFLD activity score (done pre- and post-treatment), fibrosis stage (also done pre- and post-treatment), steatosis, Colla1 level, and galactin-3 level. Tissue samples were preserved for characterization using RNAseq; RNAseq was used to determine expression levels for genes showing differential expression in compound 2-treated vs. vehicle treated animals and/or genes known to be implicated in fibrosis.

[2] = system: male Dunkin-Hartley guinea pigs; assay: bleomycin-induced pulmonary fibrosis (Example 2); settings: guinea pig lung biopsies, 6-10 weeks treatment; relative to levels prior to administration
Experimental: Pulmonary fibrosis is induced in healthy male Dunkin-Hartley guinea pigs by administering bleomycin intratracheally. Control subjects are developed by intratracheal administration of saline solution. After the establishment of pulmonary fibrosis in the bleomycin treated animals, test articles comprising any one of Compounds 1-4, or any other compound disclosed herein, are administered to each subject as appropriate for its formulation, daily or as appropriate, for 6-10 weeks. Unilateral lung biopsies are taken prior to the first administration of the test articles and again after sacrifice following the last administration of the test articles. Biopsy samples are analyzed as described in Example I, with the addition of immunohistochemical staining for type III collagen. […] Mock treated animals show little or no reduction in fibrosis, hydroxyproline content, or Collagen III content.

nude mice = assay: palmar fascia fibrosis induced by Dupuytren's disease fibroblasts (second Example 2); settings: nude mice forepaw biopsies, 6-10 weeks treatment; relative to levels prior to administration
From the text: Palmar fascia fibrosis is induced in nude mice by introducing fibroblasts from fibrotic cords of Dupuytren's disease patients as described in Stish, L. et al., BMC Musculoskelet. Disord. 16: 138-148 (2015) which is hereby incorporated by reference with respect to its description of the establishment of an animal model system for the study of palmar fascia fibrosis. After the establishment of palmar fascia fibrosis in the fibroblast treated animals, test articles comprising any one of Compounds 1-4, or any other compound disclosed herein, are administered to each subject as appropriate for its formulation, daily or as appropriate, for 6-10 weeks. Unilateral forepaw biopsies are taken prior to the first administration of the test articles and again after sacrifice following the last administration of the test articles. Biopsy samples are analyzed as described in Example 1, with the addition of immunohistochemical staining for type I collagen. […] Mock treated animals show little or no reduction in fibrosis, hydroxyproline content, or Collagen III content.

[3] = system: Sprague-Dawley Rats or C57BL mice; assay: hypertrophic skin lesions induced by capsaicin, CCl4 and/or bleomycin (Example 3); settings: rat or mouse skin biopsies, 6-10 weeks treatment; relative to levels prior to administration
From the text: Hypertrophic skin lesions are induced in Sprague-Dawley Rats by subcutaneous injection of capsaicin as described in Wallengren, J. et al., Skin Pharm. Appl. Skin Physiol. 15(3):154-165 (2002), which is hereby incorporated by reference with respect to its description of the induction of hypertrophic skin lesions in rats; or in C57BL or other appropriate strain mice by subcutaneous administration of CCl4 and/or bleomycin, as described in Alonso-Merino et al., Proc. Nat. Acad. Sci. 113(24):E3451-60 (2016), which is incorporated herein for its disclosure of the induction of fibrotic skin lesions in mice. After the establishment of hypertrophic skin lesions in the capsaicin, CCl4 and/or bleomycin treated animals, test articles comprising any one of Compounds 1-4, or any other compound disclosed herein, are administered to each subject animal as appropriate for its formulation, daily or as appropriate, for 6-10 weeks. Skin biopsies from the injection site are taken prior to the first administration of the test articles and again after sacrifice following the last administration of the test articles. Biopsy samples are analyzed as described in Example I, with the addition of immunohistochemical staining for type III collagen. […] Mock treated animals show little or no reduction in fibrosis, hydroxyproline content, or Collagen III content.

[4] = system: Glucose-6-phosphatase-α deficient mice (Agl−/−); assay: GSD-3-like hepatic symptoms in Agl-/- mice (Example 4); settings: Agl−/− mice liver biopsies, 6-10 weeks treatment; relative to levels prior to administration
Experimental: (§1) Glucose-6-phosphatase-α deficient mice that manifest GSD-3-like hepatic symptoms, including hypercholesterolemia and hyperlipidemia (Agl−/−, see e.g. Liu, K. M. et al., Mol. Genet. Metabol. 111(4):467-76 (2014)) are treated with test articles comprising any one of Compounds 1-4, or any other compound disclosed herein, administered to each subject as appropriate for its formulation, daily or as appropriate, for 6-10 weeks. Liver biopsies are taken prior to the first administration of the test articles and again after sacrifice following the last administration of the test articles. […] Mock treated animals show little or no reduction in fibrosis, hydroxyproline content, or Collagen I content.

[5] = system: Phosphorylase kinase deficient mice (PhKc−/−); assay: GSD-8/9-like hepatic symptoms in PhKc-/- mice (Example 5); settings: PhKc−/− mice liver biopsies, 6-10 weeks treatment; relative to levels prior to administration
Experimental: as §1, with “Phosphorylase kinase” for “Glucose-6-phosphatase-α”, “GSD-8/9-like” for “GSD-3-like”, “(PhKc−/−, see, e.g., Varsanyi,” for “(Agl−/−, see e.g. Liu, K.”, “Biochem.” for “Mol.”, “18(3-4):247-61 (1980)),” for “Metabol. 111(4):467-76 (2014))”

[6] = Compound 2 3 and 10 mg/kg, vs elafibranor (control) and vehicle (mock)
[7] = liver RNAseq, FIG. 8, vs vehicle-treated controls
[8] = liver, FIG. 7, relative to pre-treatment samples

Cc1cc(OCP(=O)(OCOC(=O)C(C)(C)C)OCOC(=O)C(C)(C)C)cc(C)c1Cc1ccc(O)c(Cc2ccccc2)c1 [Compound 1]
liver Picro-Sirius Red (PSR) staining (total liver collagen 1 and 3 by morphometry) (DIO-NASH mice; [6]): lower PSR staining than those from mock-treated animals
proportion of animals with a reduction in fibrosis score post-treatment (DIO-NASH mice): higher proportion

Cc1cc(OCP2(=O)OCC[C@@H](c3cccc(Cl)c3)O2)cc(C)c1Cc1ccc(O)c(C(C)C)c1 (stereo partly shown) [Compound 2]
animals with increases in fibrosis score post-treatment (DIO-NASH mice): No Compound 2-treated animals showed increases
liver Picro-Sirius Red (PSR) staining (total liver collagen 1 and 3 by morphometry) (DIO-NASH mice; [6]): lower PSR staining than control-treated or mock-treated animals
total liver hydroxyproline (DIO-NASH mice; Compound 2 3 mg/kg (low) and 10 mg/kg (high), vs elafibranor 30 mg/kg (control) and vehicle (mock)): lower total liver hydroxyproline levels than control-treated or mock-treated animals
total liver ColA1 content (anti-type I collagen staining) (DIO-NASH mice; Compound 2 3 and 10 mg/kg, terminal liver biopsy, vs elafibranor (control) and vehicle (mock)): lower total liver ColA1 content than control-treated or mock-treated animals
proportion of animals with a reduction in fibrosis score post-treatment (DIO-NASH mice): higher proportion
NAS scores (NAFLD activity score) [1]: significant improvements
toxicity [1]: No significant toxicity
reduction of total lipid content in the liver ([1]; FIG. 6, vs vehicle-treated controls): approximately 80%
reduction of expression of pro-fibrotic gene Col3a1 [1, 7]: 27.1%
reduction of expression of pro-fibrotic gene Colla1 [1, 7]: 36.3%
reduction of expression of pro-fibrotic gene Galectin 1 [1, 7]: 64.7%
reduction of expression of pro-fibrotic gene αSMA [1, 7]: 37%
reduction in fibrosis (fibrosis score) [1, 8]: 50.2%
reduction in hydroxyproline [1, 8]: 46.3%
reduction in type 1 collagen deposition [1, 8]: 60.2%
liver cholesterol ([1]; relative to untreated controls): Significant reductions
liver triglycerides ([1]; relative to untreated controls): Significant reductions
lung Collagen III staining [2]: decreased
lung fibrosis score [2]: decreased
lung hydroxyproline levels [2]: reduced levels
palmar fascia Collagen III staining (nude mice): decreased
palmar fascia fibrosis score (nude mice): decreased
palmar fascia hydroxyproline levels (nude mice): reduced levels
injection site skin Collagen III staining [3]: decreased
injection site skin fibrosis score [3]: decreased
injection site skin hydroxyproline levels [3]: reduced levels
liver Collagen I staining [4]: decreased
liver fibrosis score [4]: decreased
liver hydroxyproline levels [4]: reduced levels
liver Collagen I staining [5]: decreased
liver fibrosis score [5]: decreased
liver hydroxyproline levels [5]: reduced levels
